Where two headings read alike, the source gives them in different places.
Tests used:
[1] = tested on: H-1975 (EGFRL858R/T790M) cells; test: Cell proliferation inhibitory activity test (WST-8) of related EGFR mutations; assay type: cell-based; details: Homo sapiens, read-out: IC 50 (nM) H-1975 (EGFRL858/T790M)
Experimental: (§1) Cell Proliferation Inhibitory Activity Test Experiments of Related EGFR Mutations: 1.
(§2) Cell culture medium: RPMI containing 10% fetal bovine serum, 5 mM HEPES, and 2 mM glutamine.
(§3) Incubated overnight in a 5% carbon dioxide incubator at 37° C.
(§4) The compound was diluted to the required concentration in the culture medium at five times the final concentration. 20 microliters of the compound diluent was transferred to a culture plate containing 80 microliters of the cells incubated overnight, and continued to be incubated for 72 hours.
(§5) After 72 hours, 10 microliters of 6 mg/ml WST8 solution dissolved in a phosphate buffer solution was added, and incubated for 3 hours in 5% carbon dioxide at 37° C. A light absorption value at 450 nm was read and subtracted by an absorption value at 650 nm.
(§6) The obtained light absorption value was used to calculate cell viability according to the following equation: Cell viability %=(OD determination value/OD drug-free cell)×100

[2] = tested on: PC9 (EGFRdel19) cells; test: as above; assay type: cell-based; details: 72 h, cell viability; read-out: IC 50 (nM) PC-9 (EGFRdel19)
Experimental: as §1, §2, §3, §4, §5, §6

[3] = biological target: EGFR exon 20 insertion mutant kinase A763_Y764insFHEA (Homo sapiens, UniProt P00533, INS763FHEA); test: Kinase activity assay (33P-ATP filter-binding), EGFR exon 20 insertion mutant kinase A763_Y764insFHEA; assay type: biochemical; details: for IC50: ATP Km concentration, 10 concentrations
[4] = biological target: EGFR exon 20 insertion mutant kinase D770-N771insNPG (Homo sapiens, UniProt P00533, INS770NPG); test: Kinase activity assay (33P-ATP filter-binding), EGFR exon 20 insertion mutant kinase D770-N771insNPG; assay type: biochemical; details: ATP Km concentration; 10 concentrations
[5] = biological target: T1, Ba/F3-FL-EGFR-V769-D770 ins ASV (Homo sapiens, UniProt P00533, DUP767-769, cells depend on it); test: Cell proliferation inhibitory activity test (CellTiter-Glo), EGFR exon 20 insertion mutation; assay type: cell-based; details: 72 h, read-out: Ba/F3-FL-EGFR IC50 (nM) V769-D770ins ASV
T1 construct: Ba/F3-FL-EGFR IC50 (nM) V769-D770ins ASV; other: 72 h; class symbols; Ba/F3-FL-EGFR IC50 (nM) V769-D770ins ASV
Experimental: (§7) Cell Proliferation Inhibitory Activity Test Experiment of EGFR Exon 20 Insertion Mutation:
(§8) Cells such as Ba/F3-FL-EGFR-V769-D770 ins ASV, Ba/F3-FL-EGFR-D77-N771 ins SVD, Ba/F3-FL-EGFR-H773-V774 ins NPH, Ba/F3-FL-EGFR-A763-Y764 ins FQEA, constructed by Hefei Precedo Pharmaceuticals Co., Ltd.
(§9) 1000× compound mother liquor was prepared using DMSO, diluted to 20× final concentration using a culture medium, set aside.
(§10) Cells obtained after centrifugation were suspended with a certain amount of the culture medium and counted. The cell suspension solution was adjusted to a specified density using the culture medium, the diluted cell suspension solution was taken into a 96-well plate; 5 μl of 20× compound solution was added to each well of the 96-well plate, the content of DMSO in the final system was 0.1%; the 96-well plate was incubated for 72 h in a 5% CO2 cell incubator at 37° C.
(§11) The 96-well plate was brought to room temperature before detection, 50 μl of CellTiter-Glo® reagent was added to each well, the plate was read after being shaken for 2 minutes on a shaker and placed for 10 minutes at room temperature.
(§12) Inhibition rate (Inh %) relative to control wells processed by a solvent (DMSO) was calculated using the following equation: Inhibition rate (Inh %)=100−(RLU compound−RLU blank)/(RLU control−RLU blank)*100%

[6] = biological target: Ba/F3-FL-EGFR-D77-N771 ins SVD (Homo sapiens, UniProt P00533, DUP768-770, cells depend on it); test: as above; assay type: cell-based; details: 72 h, read-out: Ba/F3-FL-EGFR IC50 (nM) D77-N771ins SVD
Experimental: as §7, §8, §9, §10, §11, §12

[7] = biological target: Ba/F3-FL-EGFR-H773-V774 ins NPH (Homo sapiens, UniProt P00533, DUP771-773, cells depend on it); test: as above; assay type: cell-based; details: 72 h, read-out: Ba/F3-FL-EGFR IC50 (nM) H773-V774ins NPH
Experimental: as §7, §8, §9, §10, §11, §12

[8] = biological target: Ba/F3-FL-EGFR-A763-Y764 ins FQEA (Homo sapiens, UniProt P00533, INS763FQEA, cells depend on it); test: as above; assay type: cell-based; details: 72 h, read-out: Ba/F3-FL-EGFR IC50 (nM) A763-Y764ins FQEA
Experimental: as §7, §8, §9, §10, §11, §12

[9] = biological target: Ba/F3 (EGFRdel19/L858R/C797S) (Homo sapiens, UniProt P00533, C797S/L858R, cells depend on it, form not given); test: Cell proliferation inhibitory activity test (WST-8) of related EGFR mutations; assay type: cell-based; details: 72 h, cell viability; read-out: IC 50 (nM) Ba/F3 (EGFRdel19/L858/797s)

Compound	IC50 [4]	GI50 ([5]; class symbols)	GI50 ([6]; class symbols)	GI50 ([7]; class symbols)	GI50 ([8]; class symbols)	other results
C=CC(=O)Nc1cc(Nc2nccc(-c3cn(C)c4ccccc34)n2)c(OC)cc1N(C)CCN(C)C [AZD-9291, osimertinib, reference compound]	–	–	–	–	–	IC50 ([1]; NCI-H1975, 72 h): 20.2 nM; IC50 [2]: 7.85 nM
[2H]C([2H])([2H])n1cc(-c2nc(Nc3cc(NC(=O)C=C)c(N(C)CCN(C)C)nc3OCC(F)(F)F)ncc2-c2nnc(C)o2)c2ccccc21 [Example 3]	1.48 nM	–	–	–	–	IC50 [3]: 6.07 nM
C=CC(=O)Nc1cc(Nc2ncc(-c3nnc(C)o3)c(-c3cn(C4CC4)c4ccccc34)n2)c(OCC(F)(F)F)nc1N(C)CCN(C)C [Example 4]	2.79 nM	–	–	–	–	IC50 [3]: 15.3 nM
C=CC(=O)Nc1cc(Nc2ncc(C(=O)OC(C)C)c(-n3ncc4c3Cc3ccccc3-4)n2)c(OC)cc1N(C)CCN(C)C [Example 6]	1.38 nM	–	–	–	–	IC50 [3]: 9 nM
C=CC(=O)Nc1cc(Nc2ncc(C(=O)OC(C)C)c(-n3cc4c(n3)Cc3ccccc3-4)n2)c(OC)cc1N(C)CCN(C)C [Example 7]	1190 nM	–	–	–	–	IC50 [3]: 5600 nM
C=CC(=O)Nc1cc(Nc2ncc(C(=O)N(C)S(C)(=O)=O)c(-c3cn(C)c4ccccc34)n2)c(OC)cc1N(C)CCN(C)C [Example 9]	1.83 nM	–	–	–	–	IC50 [3]: 10.4 nM
[2H]C([2H])([2H])n1cc(-c2nc(Nc3cc(NC(=O)C=C)c(N(C)CCN(C)C)nc3OCC(F)(F)F)ncc2CO)c2ccccc21 [Example 10]	7.66 nM	–	–	–	–	IC50 [3]: 36.4 nM
C=CC(=O)Nc1cc(Nc2ncc(C(=O)OC(C)C)c(-n3ncc4c3-c3ccccc3C4)n2)c(OC)cc1N(C)CCN(C)C [Example 11]	7360 nM	–	–	–	–	–
C=CC(=O)Nc1cc(Nc2ncc(C(=O)OC(C)C)c(-n3cc4c(n3)-c3ccccc3C4)n2)c(OC)cc1N(C)CCN(C)C [Example 12]	0.3 nM	–	–	–	–	IC50 [3]: 2.27 nM; activity relative to the compound with the optimal activity disclosed in WO2015195228A1 (TAK788) ([3]; EGFR exon 20 insertion mutant kinases of Table 4): 2 to 3 times
C=CC(=O)Nc1cc(Nc2nccc(-n3ncc4c3-c3ccccc3C4)n2)c(OC)cc1N(C)CCN(C)C [Example 13]	169 nM	–	–	–	–	IC50 [3]: 61.1 nM
C=CC(=O)Nc1cc(Nc2ncc(C(=O)OC(C)C)c(-c3nn(C)c4c3Cc3ccccc3-4)n2)c(OC)cc1N(C)CCN(C)C [Example 14]	10.1 nM	–	–	–	–	IC50 [3]: 44.6 nM
C=CC(=O)Nc1cc(Nc2ncc(C3=NOC(C)(C)N3)c(-c3cn(C)c4ccccc34)n2)c(OC)cc1N(C)CCN(C)C [Example 19]	–	> 50 nM	–	–	–	–
C=CC(=O)Nc1cc(Nc2ncc(C3=NOC(C)(C)O3)c(-c3cn(C)c4ccccc34)n2)c(OC)cc1N(C)CCN(C)C [Example 20]	–	> 50 nM	–	–	–	–
C=CC(=O)Nc1cc(Nc2ncc(-c3nnco3)c(-c3cn(C)c4ccccc34)n2)c(OC)cc1N(C)CCN(C)C [Example 21]	–	< 5 nM	–	–	–	–
C=CC(=O)Nc1cc(Nc2ncc(-c3nnc(C)o3)c(-c3cn(C)c4ccccc34)n2)c(OC)cc1N(C)C1(CN(C)C)CC1 [Example 22]	–	< 5 nM	–	–	–	–
C=CC(=O)Nc1cc(Nc2ncc(-c3nnc(C)o3)c(-c3cn(C)c4ccccc34)n2)c(OC)cc1N(C)CC1(N(C)C)CC1 [Example 23]	–	< 5 nM	< 5 nM	< 5 nM	< 5 nM	–
[2H]C([2H])([2H])n1cc(-c2nc(Nc3cc(NC(=O)C=C)c(N(C)CCN(C)C)cc3OC)ncc2-c2nnc(C)o2)c2ccccc21 [Example 24]	–	< 5 nM	< 5 nM	< 5 nM	< 5 nM	–

Compound	IC50 [4]	GI50 ([5]; class symbols)	GI50 ([6]; class symbols)	GI50 ([7]; class symbols)	GI50 ([8]; class symbols)	other results
C=CC(=O)Nc1cc(Nc2ncc(-c3nnc(C)s3)c(-c3cn(C)c4ccccc34)n2)c(OC)cc1N(C)CCN(C)C [Example 25]	–	< 5 nM	5 to 50 nM	5 to 50 nM	< 5 nM	–
C=CC(=O)Nc1cc(Nc2ncc(-c3nnc(C)o3)c(-c3c[nH]c4ccccc34)n2)c(OC)cc1N(C)CCN(C)C [Example 26]	–	< 5 nM	< 5 nM	< 5 nM	< 5 nM	–
C=C(F)C(=O)Nc1cc(Nc2ncc(-c3nnc(C)o3)c(-c3cn(C)c4ccccc34)n2)c(OC)cc1N(C)CCN(C)C [Example 27]	–	5 to 50 nM	–	–	–	–
C=CC(=O)Nc1cc(Nc2ncc(-c3nnc(C)o3)c(-c3cn(C)c4ccccc34)n2)c(OC)cc1N1C[C@H]2CN(C)C[C@H]2C1 [Example 28]	–	> 50 nM	–	–	–	–
C=CC(=O)Nc1cc(Nc2ncc(-c3nnc(C(F)F)s3)c(-c3cn(C)c4ccccc34)n2)c(OC)cc1N(C)CCN(C)C [Example 29]	–	5 to 50 nM	< 5 nM	5 to 50 nM	< 5 nM	–
C=CC(=O)Nc1cc(Nc2ncc(-c3nnc(C)o3)c(-c3cn(C)c4ccccc34)n2)c(OC)cc1N(C)C1CC2(C1)CN(C)C2 [Example 30]	–	> 50 nM	–	–	–	–
C=CC(=O)Nc1cc(Nc2ncc(-c3nnc(C(C)C)o3)c(-c3cn(C)c4ccccc34)n2)c(OC)cc1N(C)CCN(C)C [Example 31]	–	< 5 nM	–	–	–	–
C=CC(=O)Nc1cc(Nc2ncc(-c3nnc(C)o3)c(-c3cn(C)c4ccccc34)n2)c(OC)cc1N(C)C1CCN(C)CC1 [Example 32]	–	5 to 50 nM	–	–	–	–
C=CC(=O)Nc1cc(Nc2ncc(-c3nnc(CC)o3)c(-c3cn(C)c4ccccc34)n2)c(OC)cc1N(C)CCN(C)C [Example 33]	–	< 5 nM	< 5 nM	< 5 nM	< 5 nM	–
C=C(F)C(=O)Nc1cc(Nc2ncc(-c3nnc(C)o3)c(-c3cn(C)c4ccccc34)n2)c(OC)cc1N(C)[C@H]1[C@@H]2CN(C)C[C@@H]21 [Example 34]	–	< 5 nM	< 5 nM	5 to 50 nM	< 5 nM	–
C=CC(=O)Nc1cc(Nc2ncc(C(=O)OC(C)C)c(-c3cn(C)c4ccccc34)n2)c(OC)cc1N1C[C@H]2CN(C)C[C@H]2C1 [Example 36]	–	< 5 nM	< 5 nM	< 5 nM	< 5 nM	–
C=CC(=O)Nc1cc(Nc2ncc(C(=O)OC(C)C)c(-c3cn(C)c4ccccc34)n2)c(OC)cc1N(C)[C@H]1[C@@H]2CN(C)C[C@@H]21 [Example 40]	–	< 5 nM	< 5 nM	< 5 nM	< 5 nM	–
C=CC(=O)Nc1cc(Nc2ncc(C(=O)OC(C)C)c(-c3cn(C)c4ccccc34)n2)c(OC)cc1N(C)CC1(N(C)C)CC1 [Example 41]	–	< 5 nM	< 5 nM	< 5 nM	< 5 nM	–
C=CC(=O)Nc1cc(Nc2ncc(C(=O)OC(C)C)c(-c3cn(C)c4ccccc34)n2)c(OC)cc1N(C)C1(CN(C)C)CC1 [Example 42]	–	< 5 nM	–	–	–	–
C=CC(=O)Nc1cc(Nc2ncc(C(=O)OC(C)C)c(-c3cn(C)c4ccccc34)n2)c(OC)cc1N(C)[C@H]1C[C@@H]2CN(C)C[C@@H]2C1 [Example 43]	–	< 5 nM	–	–	–	–
[2H]C([2H])([2H])n1cc(-c2nc(Nc3cc(NC(=O)C=C)c(N(C)[C@H]4[C@@H]5CN(C)C[C@@H]54)cc3OC)ncc2C(=O)OC(C)C)c2ccccc21 [Example 47]	–	< 5 nM	< 5 nM	< 5 nM	< 5 nM	–
C=CC(=O)Nc1cc(Nc2ncc(C(=O)OC(C)C)c(-c3cn(C)c4ccccc34)n2)c(OC)cc1N(C)CCN(C)C [TAK788, reference compound]	0.731 nM	–	–	–	–	IC50 [3]: 4.19 nM; GI50 [5]: 4 nM; GI50 [6]: 3.9 nM; GI50 [7]: 3.6 nM; GI50 [8]: 3.3 nM; IC50 ([1]; NCI-H1975, 72 h, cell viability): 101 nM; IC50 [2]: 24.1 nM; GI50 [9]: 2630 nM

From US12509441B2, “Compounds used as kinase inhibitors and application thereof” (TYK MEDICINES (ZHENGZHOU), INC., priority 2020, dated 2025)
